We go through 21 compounds from US20170275270A1, “BENZYL SUBSTITUTED INDAZOLES” (Bayer Pharma Aktiengesellschaft, priority 2014, published 2017).

Assay [1] concerns the target T1, catalytic domain of human Bub1 (amino acids 704-1085) (Homo sapiens, UniProt O43683).
T1 construct: catalytic domain of human Bub1 (amino acids 704-1085); His6 (N); made in house; host or cells: Hi5 insect cells
The experiment in a line: Bub1 kinase assay (TR-FRET). Format: biochemical. The method in brief:
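Compounds from 2 mM DMSO stocks, serially diluted 1:3.4, incubated with enzyme at 22° C for 60 min. Stopped with EDTA, then 1 h with streptavidin-XL665, anti-phosphoserine antibody and Eu-labelled anti-mouse IgG. Phosphorylated biotin-peptide read by TR-FRET; IC50 by 4-parameter logistic fit.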

Assay [2] relates to HeLa. The experiment in a line: Proliferation assay (HeLa cell line).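 Also: crystal violet staining of cell number, scaled between a plate stained before dosing (0%) and cells left untreated (100%), compounds tested at 0.001-10 µM, IC50 via 4-parameter fit.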 The settings on record: Homo sapiens, 96 h, read-out: Biological Assay 2: Proliferation assay (HeLa cell line) median IC50.
The test system of assay [3] is HeLa human cervical tumor cells. The experiment in a line: Proliferation assay (HeLa+Paclitaxel).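 Also: compounds at 0.001-10 µM added 4 h after paclitaxel, 92 h exposure, absorbance normalized to zero-point plate (0%) and untreated cells (100%), IC50 from 4-parameter fit.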 The settings on record: read-out: Biological Assay 3: HeLa + Paclitaxel IC50, 3 nM paclitaxel, crystal violet.
The mark [4] stands for this setting: Biological Assay 1: Bub1 kinase assay median IC50, 10 μM ATP.
Setting [5] is: 10 μM ATP, read-out: Biological Assay 1: Bub1 kinase assay median IC50.

Like-named read-outs stand apart in the source and are kept apart here.

T1 sequence (O43683 704-1085): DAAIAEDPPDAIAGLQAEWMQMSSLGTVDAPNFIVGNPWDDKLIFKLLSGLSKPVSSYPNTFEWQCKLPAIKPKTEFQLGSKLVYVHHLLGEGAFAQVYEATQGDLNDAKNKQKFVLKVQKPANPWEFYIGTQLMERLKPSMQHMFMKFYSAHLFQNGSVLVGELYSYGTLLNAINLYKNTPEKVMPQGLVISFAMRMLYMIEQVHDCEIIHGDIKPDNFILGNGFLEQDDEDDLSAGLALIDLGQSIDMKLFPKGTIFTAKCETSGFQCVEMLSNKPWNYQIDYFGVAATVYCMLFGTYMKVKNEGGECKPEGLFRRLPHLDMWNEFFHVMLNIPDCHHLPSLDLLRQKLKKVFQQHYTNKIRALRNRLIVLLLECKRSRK

As to `COCCOc1cc(F)c(Cn2nc(-c3nc(CN4CCOCC4)cc(Nc4ccnnc4)n3)c3ccccc32)c(F)c1` [Example 2-12-39, N-[2-{1-[2,6-difluoro-4-(2-methoxyethoxy)benzyl]-1H-indazol-3-yl}-6-(morpholin-4-ylmethyl)pyrimidin-4-yl]pyridazin-4-amine], the IC50 was 26 nM in assay [1] (setting [4]), greater than 10000 nM in assay [2] and 770 nM in assay [3].
In the same order, the values of `CCOc1cc(F)c(Cn2nc(-c3nc4c(c(Nc5ccnc(NC(=O)C6CC6)c5)n3)CCC4)c3ccccc32)c(F)c1` [Example 2-12-28, N-[4-({2-[1-(4-ethoxy-2,6-difluorobenzyl)-1H-indazol-3-yl]-6,7-dihydro-5H-cyclopenta[d]pyrimidin-4-yl}amino)pyridin-2-yl]cyclopropanecarbox-amide] are 9.4 nM, 5300 nM and 290 nM.
For `COc1cnccc1Nc1cc(C(C)C)nc(-c2nn(Cc3c(F)cc(OCCO)cc3F)c3ccccc23)n1` [Example 2-6-29, 2-{3,5-difluoro-4-[(3-{4-isopropyl-6-[(3-methoxypyridin-4-yl)amino]pyrimidin-2-yl}-1H-indazol-1-yl)methyl]phenoxy}ethanol], the IC50 amounted to 31 nM in assay [1] (setting [5]), 1300 nM in assay [2] and 210 nM in assay [3].
In the same order, the values of `CCOc1cc(F)c(Cn2nc(-c3nc(CN4CCCCC4)cc(Nc4ccncc4)n3)c3ccccc32)c(F)c1` [Example 2-15-7, 2-[1-(4-ethoxy-2,6-difluorobenzyl)-1H-indazol-3-yl]-6-(piperidin-1-ylmethyl)-N-(pyridin-4-yl)pyrimidin-4-amine] are 7.7 nM, 3500 nM and 150 nM.
`CCOc1cc(F)c(Cn2nc(-c3nc4c(c(Nc5ccncc5C(=O)O)n3)CCC4)c3ccccc32)c(F)c1` [Example 2-14-9, 4-({2-[1-(4-ethoxy-2,6-difluorobenzyl)-1H-indazol-3-yl]-6,7-dihydro-5H-cyclopenta[d]pyrimidin-4-yl}amino)pyridine-3-carboxylic acid]: the IC50 is 66 nM in assay [1] (setting [4]), greater than 10000 nM in assay [2] and greater than 10000 nM in assay [3].
On to `Cc1cnccc1Nc1nc(-c2nn(Cc3c(F)cc(OCCO)cc3F)c3ccccc23)nc2c1CCC2` [Example 2-4-8, 2-{3,5-difluoro-4-[(3-{4-[(3-methylpyridin-4-yl)amino]-6,7-dihydro-5H-cyclopenta[d]pyrimidin-2-yl}-1H-indazol-1-yl)methyl]phenoxy}ethanol], for which the IC50 in assay [1] (setting [4]) worked out at 5 nM; in assay [2], 1800 nM; in assay [3] it was 370 nM.
Taken in the same sequence, the figures for `CC1(C)CCc2c(nc(-c3nn(Cc4c(F)cc(OCCO)cc4F)c4ccccc34)nc2Nc2ccncc2Cl)C1` [Example 2-6-25, 2-{4-[(3-{4-[(3-chloropyridin-4-yl)amino]-7,7-dimethyl-5,6,7,8-tetrahydroquin-azolin-2-yl}-1H-indazol-1-yl)methyl]-3,5-difluorophenoxy} ethanol] were 48 nM, 7600 nM and 370 nM.
Taken in the same sequence, the figures for `CCOc1cc(F)c(Cn2nc(-c3nc4c(c(Nc5cc(OC)ncn5)n3)CCC4)c3ccccc32)c(F)c1` [Example 2-12-26, 2-[1-(4-ethoxy-2,6-difluorobenzyl)-1H-indazol-3-yl]-N-(6-methoxypyrimidin-4-yl)-6,7-dihydro-5H-cyclopenta[d]pyrimidin-4-amine] were 130 nM, 8000 nM and 1000 nM.
Taken in the same sequence, the figures for `COCCOc1cc(F)c(Cn2nc(-c3ncc(C4CCN(CC5CC5)CC4)c(Nc4ccnc(C)n4)n3)c3ccccc32)c(F)c1` [Example 2-20-12, 5-[1-(cyclopropylmethyl)piperidin-4-yl]-2-{1-[2,6-difluoro-4-(2-methoxyethoxy)benzyl]-1H-indazol-3-yl}-N-(2-methylpyrimidin-4-yl)pyrimidin-4-amine] were 31 nM, 1200 nM and 68 nM.
Take `CCOc1cc(F)c(Cn2nc(-c3nc(Nc4ccnc(C)n4)cc(-c4ccn(C)n4)n3)c3ccccc32)c(F)c1` [Example 2-12-93, 2-[1-(4-ethoxy-2,6-difluorobenzyl)-1H-indazol-3-yl]-6-(1-methyl-1H-pyrazol-3-yl)-N-(2-methylpyrimidin-4-yl)pyrimidin-4-amine]: the values for the IC50 in assay [1] (setting [4]), in assay [2] and in assay [3] were 30 nM, greater than 10000 nM and greater than 10000 nM, respectively.
Take `CCOc1cc(F)c(Cn2nc(-c3ncc(C4CN(CC(F)(F)F)C4)c(Nc4ccncc4)n3)c3ccccc32)c(F)c1` [Example 2-11-2, 2-[1-(4-ethoxy-2,6-difluorobenzyl)-1H-indazol-3-yl]-N-(pyridin-4-yl)-5-[1-(2,2,2-trifluoroeth-yl)azetidin-3-yl]pyrimidin-4-amine]: the values for the IC50 in assay [1] (setting [4]), in assay [2] and in assay [3] were 20 nM, 3400 nM and 120 nM, respectively.
For `COCCOc1cc(F)c(Cn2nc(-c3nc(CN4CCOCC4)cc(Nc4ccncc4OC)n3)c3ccccc32)c(F)c1` [Example 2-12-42, 2-{1-[2,6-difluoro-4-(2-methoxyethoxy)benzyl]-1H-indazol-3-yl}-N-(3-methoxypyridin-4-yl)-6-(morpholin-4-ylmethyl)pyrimidin-4-amine], the IC50 in assay [1] (setting [4]) amounted to 16 nM; in assay [2] it was 3400 nM; in assay [3] it was 240 nM.
With `COc1cnccc1Nc1nc(-c2nn(Cc3c(F)cc(OCCO)cc3F)c3ccccc23)ncc1C` [Example 2-6-34, 2-{3,5-difluoro-4-[(3-{4-[(3-methoxypyridin-4-yl)amino]-5-methylpyrimidin-2-yl}-1H-indazol-1-yl)methyl]phenoxy}ethanol], the IC50 in assay [1] (setting [5]) was found to be 5.1 nM; in assay [2] it was 3400 nM; in assay [3], 1100 nM.
On to `Cc1nccc(Nc2nc(-c3nn(Cc4c(F)cc(OCCO)cc4F)c4ccccc34)nc3c2CN(CC(F)(F)F)C3)n1` [Example 2-6-39, 2-{3,5-difluoro-4-[(3-{4-[(2-methylpyrimidin-4-yl)amino]-6-(2,2,2-trifluoroethyl)-6,7-dihydro-5H-pyrrolo[3,4-d]pyrimidin-2-yl}-1H-indazol-1-yl)methyl]phenoxy}ethanol], for which the IC50 was 55 nM in assay [1] (setting [4]), 7000 nM in assay [2] and 1500 nM in assay [3].
Taken in the same sequence, the figures for `COCCOc1cc(F)c(Cn2nc(-c3nc4c(c(Nc5ccncc5OC)n3)CCC4)c3ccccc32)c(F)c1` [Example 2-12-31, 2-{1-[2,6-difluoro-4-(2-methoxyethoxy)benzyl]-1H-indazol-3-yl}-N-(3-methoxypyridin-4-yl)-6,7-dihydro-5H-cyclopenta[d]pyrimidin-4-amine] were 13 nM, 3900 nM and 80 nM.
Consider `COCCOc1cc(F)c(Cn2nc(-c3nc(CN4CCOCC4)cc(Nc4ccncc4)n3)c3ccccc32)c(F)c1` [Example 2-12-43, 2-{1-[2,6-difluoro-4-(2-methoxyethoxy)benzyl]-1H-indazol-3-yl}-6-(morpholin-4-ylmethyl)-N-(pyridin-4-yl)pyrimidin-4-amine], for which the IC50 is 9.6 nM in assay [1] (setting [4]), 3600 nM in assay [2] and 250 nM in assay [3].
Taken in the same sequence, the figures for `CCOc1cc(F)c(Cn2nc(-c3nc(CN4CCOCC4)cc(Nc4ncncc4C)n3)c3ccccc32)c(F)c1` [Example 2-12-38, 2-[1-(4-ethoxy-2,6-difluorobenzyl)-1H-indazol-3-yl]-N-(5-methylpyrimidin-4-yl)-6-(morpholin-4-ylmethyl)pyrimidin-4-amine] were 3000 nM, 8800 nM and 110 nM.
With `CCOc1cc(F)c(Cn2nc(-c3nc(CN4CCOCC4)cc(Nc4cc(O)ncn4)n3)c3ccccc32)c(F)c1` [Example 2-12-45, 6-({2-[1-(4-ethoxy-2,6-difluorobenzyl)-1H-indazol-3-yl]-6-(morpholin-4-ylmethyl)pyrimidin-4-yl}amino)pyrimidin-4-ol], the values for the IC50 in assay [1] (setting [4]), in assay [2] and in assay [3] were 760 nM, greater than 10000 nM and 380 nM, respectively.
In the same order, the values of `CCOc1cc(F)c(Cn2nc(-c3nc4c(c(Nc5ccnc(NC(C)=O)c5)n3)CC(C)(C)CC4)c3ccccc32)c(F)c1` [Example 2-12-69, N-[4-({2-[1-(4-ethoxy-2,6-difluorobenzyl)-1H-indazol-3-yl]-6,6-dimethyl-5,6,7,8-tetrahydroquinazolin-4-yl}amino)pyridin-2-yl]acetamide] are 8.8 nM, 8500 nM and 170 nM.
As to `Cc1cc(Nc2ccncc2OC(F)(F)F)nc(-c2nn(Cc3c(F)cc(OCCO)cc3F)c3ccccc23)n1` [Example 2-6-35, 2-(3,5-difluoro-4-{[3-(4-methyl-6-{[3-(trifluoromethoxy)pyridin-4-yl]amino}pyrimidin-2-yl)-1H-indazol-1-yl]methyl}phenoxy)ethanol], the IC50 in assay [1] (setting [5]) stood at 5.4 nM; in assay [2], 2300 nM; in assay [3] it was 1300 nM.
`Cc1cc(Nc2ccnc(C)n2)nc(-c2nn(Cc3c(F)cc(OCCO)cc3F)c3ccccc23)n1` [Example 2-6-27, 2-{3,5-difluoro-4-[(3-{4-methyl-6-[(2-methylpyrimidin-4-yl)amino]pyrimidin-2-yl}-1H-indazol-1-yl)methyl]phenoxy}ethanol]: the IC50 in assay [1] (setting [4]) came out at 43 nM; in assay [2], 5100 nM; in assay [3], 290 nM.
